Consider 16 compounds from patent publication US8163753B2, “2,3-dihydro-6-nitroimidazo (2,1-b) oxazole compounds for the treatment of tuberculosis” (priority 2003, dated 2012).

≈ marks a conversion by molar mass, not a printed value.

For data set [1], the system named is M. tuberculosis Kurono. Put plainly: Antibacterial test, agar-plate dilution method (minimum inhibitory concentration), Test Example 2. The format is cell-based. The following applies: 7H11 agar medium, 37° C. for 14 days; for MIC: Mycobacterium tuberculosis, 336 h.
For data set [2], the system named is Mycobacterium tuberculosis (H37Rv strain). The following applies: in vitro, literature report; cited from earlier work.
Data set [3] has as its system M. avium. The following applies: used at 250 μg/ml or less; cited from earlier work.
Data set [4] has as its system M. intracellulare. The following applies: used at 250 μg/ml or less; cited from earlier work.
Data set [5] concerns M. fortuitum. The following applies: used at 250 μg/ml or less; cited from earlier work.

Regarding `C[C@]1(COc2ccc(N3CCC(CC=Cc4ccc(C(F)(F)F)cc4)CC3)cc2)Cn2cc([N+](=O)[O-])nc2O1` [Example 8, (R)-2-methyl-6-nitro-2-(4-(4-(3-(4-trifluoromethyphenyl)-2-propenyl)piperidine-1-yl)phenoxymethyl)-2,3-dihydroimidazo[2,1-b]oxazole], the “Minimum Inhibitory Concentration” value in data set [1] amounted to 0.006 µg/mL. In general, MIC refers to the smallest concentration in the dilution series that meets the test's criterion for growth inhibition. The low end stands for greater potency, the high end for weaker potency. Regarding `C[C@]1(COc2ccc(N3CCN(CCOc4ccc(OC(F)(F)F)cc4)CC3)cc2)Cn2cc([N+](=O)[O-])nc2O1` [Example 9, (R)-2-methyl-6-nitro-2-(4-(4-(2-(4-trifluoromethoxyphenoxy)ethyl)piperazine-1-yl)phenoxymethyl)-2,3-dihydroimidazo[2,1-b]oxazole], the MIC in data set [1] is 0.012 µg/mL (≈ 0.0213 µM). As to `CCC1Cn2cc([N+](=O)[O-])nc2O1` (centres unmarked) [CGI-17341], in data set [2], the “bactericidal action to Mycobacterium tuberculosis (H37Rv strain)” value is “has a bactericidal action”. Further, the “activity to M. avium” value in data set [3] is given as “does not have the activity”. The “activity to M. intracellulare” value in data set [4] is “does not have the activity”. For the same compound, the “activity to M. fortuitum” value in data set [5] is reported as “does not have the activity”. As usually defined, the melting point is the temperature, or range, at which the solid turns liquid. In turn, `C[C@]1(COc2ccc3nc(N4CCN(Cc5ccc(OC(F)(F)F)cc5)CC4)sc3c2)Cn2cc([N+](=O)[O-])nc2O1` [Example 1, (R)-2-methyl-6-nitro-2-(2-(4-(4-trifluoromethoxybenzyl)-piperazine-1-yl)benzothiazole-6-yloxymethyl)-2,3-dihydroimidazo[2,1-b]oxazole] gave a melting point of 205.6 to 207.4 °C. This compound displayed a minimum inhibitory concentration (MIC) in data set [1] of 0.2 µg/mL (≈ 0.339 µM). `CN(CC1CCN(c2ccc(OC(F)(F)F)cc2)CC1)c1ccc(OC[C@@]2(C)Cn3cc([N+](=O)[O-])nc3O2)cc1` displayed a melting point of 172.5 to 175.2 °C. For `C[C@]1(COc2ccc3c(c2)nc(N2CCN(Cc4ccc(OC(F)(F)F)cc4)CC2)n3Cc2ccccc2)Cn2cc([N+](=O)[O-])nc2O1`, the melting point lay in the range of 101.3 to 104 °C. Compound `O=[N+]([O-])c1cn2c(n1)O[C@@H](COc1ccc(N3CCC(CCc4ccc(OC(F)(F)F)cc4)CC3)cc1)C2` displayed a melting point of 208.9 to 211.7 °C.

Consider `CN(c1ccc(OC(F)(F)F)cc1)C1CCN(C2CCN(c3ccc(OC[C@@]4(C)Cn5cc([N+](=O)[O-])nc5O4)cc3)CC2)CC1`, for which the melting point was in the range of 196 to 197 °C. As for `C[C@]1(COc2ccc(N3CCC(Oc4ccc(OC(F)(F)F)cc4)CC3)nc2)Cn2cc([N+](=O)[O-])nc2O1`, the melting point fell in the range of 185.9 to 186.7 °C. With `C[C@]1(COc2ccc(N3CCC(OCc4ccc(OC(F)(F)F)cc4)CC3)cc2)Cn2cc([N+](=O)[O-])nc2O1`, the melting point lay within 214.3 to 217.7 °C. As for `CCCc1ccc(NC2CCN(c3ccc(OC[C@@]4(C)Cn5cc([N+](=O)[O-])nc5O4)cc3)CC2)cc1`, the melting point is 222 to 223 °C. Still for that read-out and setting: as for `CN(Cc1ccc(N(C)CC=Cc2ccc(C(F)(F)F)cc2)cc1)C[C@@]1(C)Cn2cc([N+](=O)[O-])nc2O1`, the figure is 153.5 to 154.5 °C; as for `O=[N+]([O-])c1cn2c(n1)O[C@@H](COc1ccc(N3CCC(OCc4ccc(OC(F)(F)F)cc4)CC3)cc1)C2`, 188.3 to 189.4 °C; as for `C[C@]1(COc2ccc(N3CCC(N4CCN(c5ccc(Cl)cc5)CC4)CC3)cc2)Cn2cc([N+](=O)[O-])nc2O1`, 247 to 249 °C. The compound `CN(Cc1ccccc1C(F)(F)F)C1CCN(c2ccc(OC[C@@]3(C)Cn4cc([N+](=O)[O-])nc4O3)cc2)CC1` returned a melting point of 189.6 to 190.2 °C.

`C[C@]1(COc2ccc(N3CCC(COc4ccc(CCl)cc4)CC3)cc2)Cn2cc([N+](=O)[O-])nc2O1` gave a melting point of 140.4 to 141.7 °C.
